Experimental data taken from the NIST ThermoML archive (doi:10.1007/s10765-005-8590-7).
± gives the expanded uncertainty stated by the source.

Assay: xn = mol fraction of the nth substance listed
Conditions: Fluid (supercritical or subcritical phases), Constant-volume piezometry

N [ammonia] + O
mass density (253.18 K, 483.5 kPa, x1 = 0.1386): 956.4 ± 0.21 kg/m3
mass density (254.14 K, 619.3 kPa, x1 = 0.1386): 956.35 ± 0.21 kg/m3
mass density (257.06 K, 1159.1 kPa, x1 = 0.1386): 956.19 ± 0.21 kg/m3
mass density (259.15 K, 1375.1 kPa, x1 = 0.1086): 964.04 ± 0.22 kg/m3
mass density (259.15 K, 1646.6 kPa, x1 = 0.1386): 956.07 ± 0.21 kg/m3
mass density (260.13 K, 3144.3 kPa, x1 = 0.0999): 971.4 ± 0.26 kg/m3
mass density (260.15 K, 1417.1 kPa, x1 = 0.1086): 963.99 ± 0.22 kg/m3
mass density (260.15 K, 3759 kPa, x1 = 0.0955): 968.65 ± 0.23 kg/m3
mass density (261.02 K, 2146.1 kPa, x1 = 0.1386): 955.96 ± 0.21 kg/m3
mass density (261.14 K, 1483.6 kPa, x1 = 0.1086): 963.95 ± 0.22 kg/m3
mass density (261.15 K, 3146.8 kPa, x1 = 0.0999): 971.36 ± 0.22 kg/m3
mass density (261.15 K, 3737.1 kPa, x1 = 0.0955): 968.61 ± 0.23 kg/m3
mass density (262.12 K, 3739.8 kPa, x1 = 0.0955): 968.57 ± 0.23 kg/m3
mass density (262.15 K, 1572 kPa, x1 = 0.1086): 963.9 ± 0.22 kg/m3
mass density (262.15 K, 3173.9 kPa, x1 = 0.0999): 971.31 ± 0.23 kg/m3
mass density (263.13 K, 1676.5 kPa, x1 = 0.1086): 963.85 ± 0.22 kg/m3
mass density (263.13 K, 1686.6 kPa, x1 = 0.1086): 963.85 ± 0.22 kg/m3
mass density (263.13 K, 3221.1 kPa, x1 = 0.0999): 971.27 ± 0.23 kg/m3
mass density (263.16 K, 3225.1 kPa, x1 = 0.0999): 971.27 ± 0.23 kg/m3
mass density (263.16 K, 3766.5 kPa, x1 = 0.0955): 968.52 ± 0.24 kg/m3
mass density (263.96 K, 16220 kPa, x1 = 0.0606): 987.12 ± 0.26 kg/m3
mass density (264.11 K, 3813.7 kPa, x1 = 0.0955): 968.48 ± 0.24 kg/m3
mass density (264.14 K, 3297.9 kPa, x1 = 0.0999): 971.22 ± 0.23 kg/m3
mass density (264.15 K, 1824.1 kPa, x1 = 0.1086): 963.8 ± 0.22 kg/m3
mass density (265 K, 16117 kPa, x1 = 0.0606): 987.08 ± 0.26 kg/m3
mass density (265.13 K, 3469.4 kPa, x1 = 0.1386): 955.71 ± 0.22 kg/m3
mass density (265.15 K, 1981.7 kPa, x1 = 0.1086): 963.75 ± 0.21 kg/m3
mass density (265.15 K, 3396.5 kPa, x1 = 0.0999): 971.17 ± 0.23 kg/m3
mass density (265.15 K, 3889.7 kPa, x1 = 0.0955): 968.43 ± 0.24 kg/m3
mass density (265.18 K, 5311.9 kPa, x1 = 0.0644): 979.94 ± 0.23 kg/m3
mass density (265.38 K, 8334.6 kPa, x1 = 0.064): 980.35 ± 0.23 kg/m3
mass density (265.62 K, 811.9 kPa, x1 = 0.0591): 975.65 ± 0.21 kg/m3
mass density (265.99 K, 16054 kPa, x1 = 0.0606): 987.04 ± 0.26 kg/m3
mass density (266.12 K, 16223 kPa, x1 = 0.047): 989.78 ± 0.26 kg/m3
mass density (266.14 K, 745.3 kPa, x1 = 0.0591): 975.64 ± 0.21 kg/m3
mass density (266.14 K, 8277 kPa, x1 = 0.064): 980.32 ± 0.24 kg/m3
mass density (266.15 K, 2619 kPa, x1 = 0.0582): 979.8 ± 0.22 kg/m3
mass density (266.63 K, 698.1 kPa, x1 = 0.0591): 975.62 ± 0.21 kg/m3
mass density (267.09 K, 4204.5 kPa, x1 = 0.1386): 955.58 ± 0.22 kg/m3
mass density (267.13 K, 2495.5 kPa, x1 = 0.0582): 979.77 ± 0.22 kg/m3
mass density (267.14 K, 8221.5 kPa, x1 = 0.064): 980.28 ± 0.24 kg/m3
mass density (267.15 K, 298 kPa, x1 = 0.1436): 952.4 ± 0.21 kg/m3
mass density (267.15 K, 2355.6 kPa, x1 = 0.1086): 963.64 ± 0.21 kg/m3
mass density (267.15 K, 3654.7 kPa, x1 = 0.0999): 971.07 ± 0.23 kg/m3
mass density (267.15 K, 16033 kPa, x1 = 0.047): 989.74 ± 0.26 kg/m3
mass density (267.16 K, 634.7 kPa, x1 = 0.0591): 975.6 ± 0.21 kg/m3
mass density (267.17 K, 5193.7 kPa, x1 = 0.0644): 979.87 ± 0.23 kg/m3
mass density (268.02 K, 15974 kPa, x1 = 0.0606): 986.96 ± 0.26 kg/m3
mass density (268.1 K, 7316.4 kPa, x1 = 0.0513): 984.85 ± 0.24 kg/m3
mass density (268.15 K, 723.3 kPa, x1 = 0.1436): 952.33 ± 0.21 kg/m3
mass density (268.17 K, 2415.7 kPa, x1 = 0.0582): 979.73 ± 0.22 kg/m3
mass density (268.17 K, 15948 kPa, x1 = 0.047): 989.7 ± 0.26 kg/m3
mass density (269 K, 15979 kPa, x1 = 0.0606): 986.92 ± 0.26 kg/m3
mass density (269.1 K, 7244.1 kPa, x1 = 0.0513): 984.81 ± 0.23 kg/m3
mass density (269.1 K, 7256.7 kPa, x1 = 0.0513): 984.81 ± 0.23 kg/m3
mass density (269.11 K, 500.6 kPa, x1 = 0.0591): 975.52 ± 0.21 kg/m3
mass density (269.14 K, 2812.6 kPa, x1 = 0.1086): 963.53 ± 0.22 kg/m3
mass density (269.14 K, 5179.9 kPa, x1 = 0.0644): 979.78 ± 0.23 kg/m3
mass density (269.15 K, 1141.1 kPa, x1 = 0.1436): 952.26 ± 0.21 kg/m3
mass density (269.15 K, 4001.7 kPa, x1 = 0.0999): 970.97 ± 0.23 kg/m3
mass density (269.15 K, 8192.6 kPa, x1 = 0.064): 980.19 ± 0.23 kg/m3
mass density (269.15 K, 8194.7 kPa, x1 = 0.064): 980.19 ± 0.23 kg/m3
mass density (269.17 K, 15892 kPa, x1 = 0.047): 989.66 ± 0.26 kg/m3
mass density (269.18 K, 4424 kPa, x1 = 0.0955): 968.23 ± 0.22 kg/m3
mass density (269.19 K, 2364.1 kPa, x1 = 0.0582): 979.69 ± 0.22 kg/m3
mass density (269.2 K, 5071.6 kPa, x1 = 0.1386): 955.44 ± 0.22 kg/m3
mass density (270.13 K, 15862 kPa, x1 = 0.047): 989.62 ± 0.26 kg/m3
mass density (270.14 K, 4346.8 kPa, x1 = 0.0302): 991.12 ± 0.23 kg/m3
mass density (270.15 K, 1609 kPa, x1 = 0.1436): 952.18 ± 0.21 kg/m3
mass density (270.15 K, 7195.1 kPa, x1 = 0.0513): 984.77 ± 0.23 kg/m3
mass density (270.15 K, 15862 kPa, x1 = 0.047): 989.62 ± 0.26 kg/m3
mass density (270.99 K, 16062 kPa, x1 = 0.0606): 986.82 ± 0.26 kg/m3
mass density (271.11 K, 15856 kPa, x1 = 0.047): 989.57 ± 0.26 kg/m3
mass density (271.12 K, 467.5 kPa, x1 = 0.0591): 975.44 ± 0.21 kg/m3
mass density (271.13 K, 15857 kPa, x1 = 0.047): 989.57 ± 0.26 kg/m3
mass density (271.14 K, 3349.5 kPa, x1 = 0.1086): 963.41 ± 0.22 kg/m3
mass density (271.15 K, 2091.5 kPa, x1 = 0.1436): 952.11 ± 0.21 kg/m3
mass density (271.15 K, 3960.4 kPa, x1 = 0.014): 996.21 ± 0.23 kg/m3
mass density (271.15 K, 7177.2 kPa, x1 = 0.0513): 984.72 ± 0.23 kg/m3
mass density (271.15 K, 8265.9 kPa, x1 = 0.064): 980.1 ± 0.23 kg/m3
mass density (271.16 K, 4437.7 kPa, x1 = 0.0999): 970.85 ± 0.59 kg/m3
mass density (271.17 K, 4208.2 kPa, x1 = 0.0302): 991.09 ± 0.23 kg/m3
mass density (271.17 K, 5274.3 kPa, x1 = 0.0644): 979.69 ± 0.23 kg/m3
mass density (271.18 K, 2339.7 kPa, x1 = 0.0582): 979.6 ± 0.22 kg/m3
mass density (271.18 K, 4814.2 kPa, x1 = 0.0955): 968.12 ± 0.27 kg/m3
mass density (272.15 K, 3778.7 kPa, x1 = 0.014): 996.18 ± 0.23 kg/m3
mass density (272.15 K, 4113.5 kPa, x1 = 0.0302): 991.05 ± 0.23 kg/m3
mass density (272.15 K, 7185.7 kPa, x1 = 0.0513): 984.68 ± 0.23 kg/m3
mass density (272.15 K, 15879 kPa, x1 = 0.047): 989.53 ± 0.26 kg/m3
mass density (273.13 K, 4952 kPa, x1 = 0.0999): 970.74 ± 0.22 kg/m3
mass density (273.14 K, 506.6 kPa, x1 = 0.0591): 975.35 ± 0.21 kg/m3
mass density (273.14 K, 4040.3 kPa, x1 = 0.0302): 991.01 ± 0.23 kg/m3
mass density (273.14 K, 16263 kPa, x1 = 0.0606): 986.71 ± 0.26 kg/m3
mass density (273.15 K, 2431.2 kPa, x1 = 0.0582): 979.51 ± 0.22 kg/m3
mass density (273.15 K, 3104.4 kPa, x1 = 0.1436): 951.96 ± 0.21 kg/m3
mass density (273.15 K, 3633.6 kPa, x1 = 0.014): 996.14 ± 0.23 kg/m3
mass density (273.15 K, 3634.2 kPa, x1 = 0.014): 996.14 ± 0.23 kg/m3
mass density (273.15 K, 3935 kPa, x1 = 0.1086): 963.29 ± 0.22 kg/m3
mass density (273.15 K, 7219.4 kPa, x1 = 0.0513): 984.63 ± 0.23 kg/m3
mass density (273.15 K, 8435.9 kPa, x1 = 0.064): 980.01 ± 0.23 kg/m3
mass density (273.17 K, 15928 kPa, x1 = 0.047): 989.48 ± 0.25 kg/m3
mass density (274.14 K, 16000 kPa, x1 = 0.047): 989.44 ± 0.26 kg/m3
mass density (274.15 K, 3992.2 kPa, x1 = 0.0302): 990.97 ± 0.23 kg/m3
mass density (274.15 K, 7279.5 kPa, x1 = 0.0513): 984.59 ± 0.23 kg/m3
mass density (274.99 K, 16547 kPa, x1 = 0.0606): 986.61 ± 0.26 kg/m3
mass density (275.08 K, 7892.7 kPa, x1 = 0.1386): 955.03 ± 0.23 kg/m3
mass density (275.13 K, 677.5 kPa, x1 = 0.0591): 975.25 ± 0.22 kg/m3
mass density (275.14 K, 2612.8 kPa, x1 = 0.0582): 979.41 ± 0.22 kg/m3
mass density (275.15 K, 3430.4 kPa, x1 = 0.014): 996.07 ± 0.23 kg/m3
mass density (275.15 K, 3431.2 kPa, x1 = 0.014): 996.07 ± 0.23 kg/m3
mass density (275.15 K, 3970.2 kPa, x1 = 0.0302): 990.93 ± 0.22 kg/m3
mass density (275.15 K, 4178.5 kPa, x1 = 0.1436): 951.81 ± 0.21 kg/m3
mass density (275.15 K, 4633.1 kPa, x1 = 0.1086): 963.16 ± 0.22 kg/m3
